Experimental findings from patent US10118902B2 (Sanford Burnham Prebys Medical Discovery Institute, priority 2014, dated 2018) are described below.

A word on the EC50: it is the midpoint of the concentration-response curve.

The structures appear in SMILES notation.

This experiment has as its target neurotensin receptor 1 (NTR1) (Homo sapiens (Human), UniProt P30989). Briefly: NTR1 dose response, high-content imaging beta-arrestin-GFP assay in NTR1-U2OS cells. In kind it is cell-based. To be noted: read-out: EC50.

Sequence of neurotensin receptor 1 (NTR1) (P30989 whole entry, species assumed): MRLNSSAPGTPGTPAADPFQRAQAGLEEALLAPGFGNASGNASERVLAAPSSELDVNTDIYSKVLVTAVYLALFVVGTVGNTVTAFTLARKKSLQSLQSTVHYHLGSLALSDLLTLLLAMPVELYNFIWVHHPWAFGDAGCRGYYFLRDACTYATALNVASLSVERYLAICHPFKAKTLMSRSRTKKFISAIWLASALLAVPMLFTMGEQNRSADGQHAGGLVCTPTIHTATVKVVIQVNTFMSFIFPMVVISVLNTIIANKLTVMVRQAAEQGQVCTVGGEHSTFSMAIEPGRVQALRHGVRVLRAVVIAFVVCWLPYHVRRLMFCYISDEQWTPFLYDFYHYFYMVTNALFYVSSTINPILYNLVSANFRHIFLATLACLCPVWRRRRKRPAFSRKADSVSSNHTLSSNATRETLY

Regarding `COc1ccccc1C1CCN(c2nc(C3(F)CC3)nc3cnc(N4CC[C@H](O)C4)cc23)CC1` [Example 196, 1-{2-(1-Fluoro-cyclopropyl)-4-[4-(2-methoxy-phenyl)-piperidin-1-yl]-pyrido[3,4-d]pyrimidin-6-yl}-pyrrolidin-3-ol], the EC50 is 500 to 2000 nM.
For `CCCN(C)c1ccc2nc(C3(F)CC3)nc(N3CCC(c4ccccc4OC)CC3)c2c1` [Example 20, {2-(1-fluoro-cyclopropyl)-4-[4-(2-methoxy-phenyl)-piperidin-1-yl]-quinazolin-6-yl}-methyl-propyl-amine], the EC50 was in the range of 500 to 2000 nM.
In the case of `COc1ccccc1C1CCN(c2nc(C3CC3)nc3ccc(CN(C)CCO)cc23)CC1` [Example 89, 2-({2-cyclopropyl-4-[4-(2-methoxy-phenyl)-piperidin-1-yl]-quinazolin-6-ylmethyl}-methyl-amino)-ethanol], the EC50 was over 10000 nM.
`COc1ccccc1C1CCN(c2nc(C3(F)CC3)nc3ccc(N(C)CCO)cc23)CC1` [Example 15, 2-({2-(1-Fluoro-cyclopropyl)-4-[4-(2-methoxy-phenyl)-piperidin-1-yl]-quinazolin-6-yl}-methyl-amino)-ethanol]: the EC50 was under 500 nM.
For the compound `COc1ccccc1C1CCN(c2nc(C3(N(C)C)CC3)nc3ccc(N(C)C)cc23)CC1` [Example 19, {2-(1-dimethylamino-cyclopropyl)-4-[4-(2-methoxy-phenyl)-piperidin-1-yl]-quinazolin-6-yl}-dimethyl-amine], the EC50 was over 10000 nM.
With `COCCN(C)c1ccc2nc(C3(C)CC3)nc(N3CCC(c4ccccc4N4CCC4)CC3)c2c1` [Example 31, [4-[4-(2-azetidin-1-yl-phenyl)-piperidin-1-yl]-2-(1-methyl-cyclopropyl)-quinazolin-6-yl]-(2-methoxy-ethyl)-methyl-amine], the EC50 is over 10000 nM.
In the case of `COc1ccncc1C1CCN(c2nc(C3(F)CC3)nc3ccc(N(C)CCO)cc23)CC1` [Example 210, 2-{[2-(1-Fluoro-cyclopropyl)-4-(4-methoxy-3′,4′,5′,6′-tetrahydro-2′H-[3,4′]bipyridinyl-1′-yl)-quinazolin-6-yl]-methyl-amino}-ethanol], the EC50 was 2000 to 10000 nM.
Turning to `CCCN(C)Cc1ccc2nc(C3CC3)nc(N3CCC(c4ccccc4OC)CC3)c2c1` [Example 85, {2-cyclopropyl-4-[4-(2-methoxy-phenyl)-piperidin-1-yl]-quinazolin-6-ylmethyl}-methyl-propyl-amine], the EC50 was over 10000 nM.
With `CN(C)c1ccccc1C1CCN(c2nc(C3(C)CC3)nc3ccc(N(C)CCN4CCOCC4)cc23)CC1` [Example 27], the EC50 is over 10000 nM.
Turning to `COc1ccccc1C1CCN(c2nc(N(C)C)nc3ccc(N(C)CCO)cc23)CC1` [Example 94], the EC50 was 500 to 2000 nM.
Next, `COc1ccccc1C1CCN(c2nc(OC3CCC3)nc3ccc(N(C)CCO)cc23)CC1` [Example 193, 2-((2-cyclobutoxy-4-(4-(2-methoxyphenyl)piperidin-1-yl)quinazolin-6-yl)(methyl)amino)ethanol]: 500 to 2000 nM; `Cc1cc2nc(C3CC3)nc(N3CCC(c4ccccc4N(C)C)CC3)c2cc1N(C)CCO` [Example 116, 2-({2-cyclopropyl-4-[4-(2-dimethylamino-phenyl)-piperidin-1-yl]-7-methyl-quinazolin-6-yl}-methyl-amino)-ethanol]: 500 to 2000 nM.
On to `CN(C)c1ccccc1C1CCN(c2nc(C3(C)CCC3)nc3ccc(N(C)CCO)cc23)CC1` [Example 68, 2-{[4-[4-(2-dimethylamino-phenyl)-piperidin-1-yl]-2-(1-methyl-cyclobutyl)-quinazolin-6-yl]-methyl-amino}-ethanol], for which the EC50 lay within 500 to 2000 nM.
As for `COc1ccccc1C1CCN(c2nc(C3(F)CC3)nc3ccc(N4CC[C@@H](O)C4)cc23)CC1` [Example 178, (R)-1-{2-(1-Fluoro-cyclopropyl)-4-[4-(2-methoxy-phenyl)-piperidin-1-yl]-quinazolin-6-yl}-pyrrolidin-3-ol], the EC50 fell in the range of 500 to 2000 nM.
Take `CN(C)c1ccccc1C1CCN(c2nc(C3CC3)nc3ccc(N(C)CCN4CCOCC4)cc23)CC1` [Example 12, {2-Cyclopropyl-4-[4-(2-dimethylamino-phenyl)-piperidin-1-yl]-quinazolin-6-yl}-methyl-(2-morpholin-4-yl-ethyl)-amine]: the EC50 lay within 2000 to 10000 nM.
For the compound `CN(CCO)c1ccc2nc(C3CC3)nc(N3CCN(C4CCCC4O)CC3)c2c1` (stereo not shown) [Example 140, 2-(4-{2-cyclopropyl-6-[(2-hydroxy-ethyl)-methyl-amino]-quinazolin-4-yl}-piperazin-1-yl)-cyclopentanol], the EC50 is over 10000 nM.
On to `COc1ccccc1C1CCN(c2nc(C3CC3)nc3ccc(N4CC[C@H](O)C4)cc23)CC1` [Example 82, (S)-1-(2-cyclopropyl-4-(4-(2-methoxyphenyl)piperidin-1-yl)quinazolin-6-yl)pyrrolidin-3-ol], for which the EC50 lay within 500 to 2000 nM.
Next, `CN(CCN1CCOCC1)c1ccc2nc(C3(C)CC3)nc(N3CCC(c4ccccc4N4CCC4)CC3)c2c1` [Example 32, [4-[4-(2-azetidin-1-yl-phenyl)-piperidin-1-yl]-2-(1-methyl-cyclopropyl)-quinazolin-6-yl]-methyl-(2-morpholin-4-yl-ethyl)-amine]: over 10000 nM.
Regarding `COc1ccccc1C1CCN(c2nc(C3(C(F)(F)F)CC3)nc3ccc(N(C)CCO)cc23)CC1` [Example 47, 2-{[4-[4-(2-methoxy-phenyl)-piperidin-1-yl]-2-(1-trifluoromethyl-cyclopropyl)-quinazolin-6-yl]-methyl-amino}-ethanol], the EC50 is under 500 nM.
In the case of `CN(CCO[Si](C)(C)C(C)(C)C)c1ccc2nc(C3(F)CC3)nc(N3CCC(c4ccccc4O)CC3)c2c1` [Example 224, 2-{1-[6-{[2-(tert-Butyl-dimethyl-silanyloxy)-ethyl]-methyl-amino}-2-(1-fluoro-cyclopropyl)-quinazolin-4-yl]-piperidin-4-yl}-phenol], the EC50 lay in the range of 2000 to 10000 nM.
As to `CN(C)c1ccccc1C1CCN(c2nc(C3(C(F)(F)F)CCCC3)nc3ccc(N(C)CCN4CCOCC4)cc23)CC1` [Example 58, [4-[4-(2-dimethylamino-phenyl)-piperidin-1-yl]-2-(1-trifluoromethyl-cyclopentyl)-quinazolin-6-yl]-methyl-(2-morpholin-4-yl-ethyl)-amine], the EC50 lay in the range of 2000 to 10000 nM.
Next, `COc1ccccc1C1CCN(c2nc(C3CC3)nc3ccc(N4CC[C@H](OC)C4)cc23)CC1` [Example 174, (S)-2-cyclopropyl-4-(4-(2-methoxyphenyl)piperidin-1-yl)-6-(3-methoxypyrrolidin-1-yl)quinazoline]: 500 to 2000 nM.
As for `COCCN(C)Cc1ccc2nc(C3CC3)nc(N3CCC(c4ccccc4OC)CC3)c2c1` [Example 87, {2-cyclopropyl-4-[4-(2-methoxy-phenyl)-piperidin-1-yl]-quinazolin-6-ylmethyl}-(2-methoxy-ethyl)-methyl-amine], the EC50 was in the range of 2000 to 10000 nM.
For the compound `CN(CCO)c1ccc2nc(C3(C)CC3)nc(N3CCC(c4ccccc4N4CCC4)CC3)c2c1` [Example 30, 2-{[4-[4-(2-azetidin-1-yl-phenyl)-piperidin-1-yl]-2-(1-methyl-cyclopropyl)-quinazolin-6-yl]-methyl-amino}-ethanol], the EC50 is 2000 to 10000 nM.
Turning to `CN(C)CCN(C)c1ccc2nc(C3(C)CC3)nc(N3CCC(c4ccccc4N4CCC4)CC3)c2c1` [Example 35, N-[4-[4-(2-azetidin-1-yl-phenyl)-piperidin-1-yl]-2-(1-methyl-cyclopropyl)-quinazolin-6-yl]-N,N′,N′-trimethyl-ethane-1,2-diamine], the EC50 was over 10000 nM.
Next, `CCCN(C)c1cccc2c(N3CCC(c4ccccc4OC)CC3)nc(C3CC3)nc12` [Example 128, {2-cyclopropyl-4-[4-(2-methoxy-phenyl)-piperidin-1-yl]-quinazolin-8-yl}-methyl-propyl-amine]: over 10000 nM; `COc1nccnc1C1CCN(c2nc(C3(C)CC3)nc3c(F)cc(N(C)CCO)cc23)CC1` [Example 204, 2-{[8-Fluoro-4-[4-(3-methoxy-pyrazin-2-yl)-piperidin-1-yl]-2-(1-methyl-cyclopropyl)-quinazolin-6-yl]-methyl-amino}-ethanol]: 500 to 2000 nM.
Turning to `COc1ccccc1C1CCN(c2nc(C3(F)CC3)nc3ccc(N(C)CC(=O)O)cc23)CC1` [Example 180, 2-((2-(1-fluorocyclopropyl)-4-(4-(2-methoxyphenyl)piperidin-1-yl)quinazolin-6-yl)(methyl)amino)acetic acid], the EC50 was in the range of 2000 to 10000 nM.
Regarding `COc1ccccc1C1CCN(c2nc(C3CCCC3)nc3ccc(N(C)C)cc23)CC1` [Example 37, {2-cyclopentyl-4-[4-(2-methoxy-phenyl)-piperidin-1-yl]-quinazolin-6-yl}-dimethyl-amine], the EC50 was over 10000 nM.
For `CCCN(C)C(=O)Cc1cnc(C2CC2)nc1N1CCC(c2ccccc2OC)CC1` [Example 165, 2-{2-cyclopropyl-4-[4-(2-methoxy-phenyl)-piperidin-1-yl]-pyrimidin-5-yl}-N-methyl-N-propyl-acetamide], the EC50 was over 10000 nM.
The result for `CN(CCN1CCCC1)c1ccc2nc(C3(C)CC3)nc(N3CCC(c4ccccc4N4CCC4)CC3)c2c1` [Example 36, [4-[4-(2-azetidin-1-yl-phenyl)-piperidin-1-yl]-2-(1-methyl-cyclopropyl)-quinazolin-6-yl]-methyl-(2-pyrrolidin-1-yl-ethyl)-amine] reads over 10000 nM.
The result for `CN(CCO)c1cc2c(N3CCC(c4ccccc4N4CCC4)CC3)nc(C3CC3)nc2cc1Cl` [Example 119, 2-({4-[4-(2-azetidin-1-yl-phenyl)-piperidin-1-yl]-7-chloro-2-cyclopropyl-quinazolin-6-yl}-methyl-amino)-ethanol] reads 2000 to 10000 nM.
Next, `CCN(C)c1ccc2nc(C3CC3)nc(N3CCN(c4ccccc4N4CCC4)CC3)c2c1` [Example 2, {4-[4-(2-azetidin-1-yl-phenyl)-piperazin-1-yl]-2-cyclopropyl-quinazolin-6-yl}-ethyl-methyl-amine]: 500 to 2000 nM; `COc1ccccc1C1CCN(c2nc(C3CCCC3)nc3ccc(N(C)CCO)cc23)CC1` [Example 38, 2-({2-cyclopentyl-4-[4-(2-methoxy-phenyl)-piperidin-1-yl]-quinazolin-6-yl}-methyl-amino)-ethanol]: 2000 to 10000 nM.
